Results reported in article PMC12706794, “Identification and Characterization of a Small-Molecule Inhibitor of the Pseudomonas aeruginosa SOS Response” (ACS Infectious Diseases, 2025).
≈ marks a conversion by molar mass, not a printed value.

B1: SOS-box dsDNA (AT-repeat) (dsDNA)
DNA 1: GATGCCTGCGGATACTGTATATATATACAGTATCAATTCTGGCT
DNA 2: AGCCAGAATTGATACTGTATATATATACAGTATCCGCAGGCATC

Experiments:
[1] = tested on: P. aeruginosa PAO1; test: Antimicrobial susceptibility testing (MIC); format: cell-based, P. aeruginosa PAO1 (ATCC 15692); details: for MIC: Pseudomonas aeruginosa, PAO1
Protocol: The MIC of compound A12 and antibiotics was determined by using the Clinical Laboratory Standard Institute (CLSI) recommendations with minor modifications. […] Microplates were incubated in a humidified incubator for 18 h at 37 °C, and the bacterial growth was quantified by OD600. According to CLSI, MICs are defined as the lowest concentrations of antimicrobial agents that prevent visible growth.

[2] = target: T1, RecAPa*-induced FlAsH-LexAPa CTD autoproteolysis (Pseudomonas aeruginosa, UniProt P37452); test: FP-based RecA*-induced LexA autoproteolysis in vitro assay; format: biochemical, P. aeruginosa; details: highest concentration tested, range 0.2 to 2 mM
T1 construct: 6His-SUMO (N, cleaved yes); made in house; host or cells: E. coli BL21(DE3)
Protocol: A custom-made library of 318 small molecules (MW < 1000 Da) has been screened at two different concentrations (25 μg/mL and 125 μg/mL, corresponding to molar concentrations of 30–170 μM and 150–850 μM, respectively) on the P. aeruginosa SOS system by a previously validated fluorescence polμarization (FP)-based RecA*-induced LexA autoproteolysis in vitro assay. , 1 μM FlAsH-LexAPa ^CTD and 1 μM preactivated RecA*Pa were incubated with the screened chemical fragments for 1 h at 37 °C before measuring FP.
Then, the FP-based LexA autoproteolysis assay was repeated on the two hits, monitoring the full kinetics of LexA cleavage over a 1 h incubation and exploring a wide range of drug concentrations (10–1000 μM).
A custom-made library of 318 chemical fragments (25 mg/mL stock solutions in DMSO), provided by P. Kavaliauskas (Weill Cornell Medicine of Cornell University) was screened in vitro for their ability to inhibit RecAPa*-mediated LexAPa autoproteolysis by a Fluorescence Polarization (FP)-based assay. , Twenty microliter reactions were set up in Nunc 384-Well Black microplates, and final reaction mixtures included 1 μM FlAsH-LexAPa ^CTD, the compounds (5% v/v DMSO in all the samples, including the controls devoid of compounds), and 1 μM RecAPa* (FP Buffer in the negative control; 30 mM Hepes, 150 mM NaCl, pH 7.1). The initial screening was performed with two dilutions of the compounds (25 and 125 μg/mL). The FP signal was measured after a 1 h incubation at 37 °C by an EnVision MultiMode Plate Reader (PerkinElmer) equipped with opportune FP filters and mirrors. To obtain LexAPa ^CTD autoproteolysis percent inhibition, FP data were scaled from 0% (corresponding to the positive control sample) to 100% (negative control).
Compounds displaying an inhibition of at least 50% at the highest concentration and a rather consistent increase in activity at the two tested concentrations were selected as the hits.
The same FP assay was carried out on serial dilutions of selected compounds to determine the dose–response relationship. To evaluate the effect of a reducing environment, 2 mM Tris(2-carboxyethyl)-phosphine (TCEP) was added to the reaction mixtures. The FP signal of FlAsH-LexAPa ^CTD alone was detected for 5 min before adding the compounds. The system was monitored for an additional 5 min in the presence of the tested compounds in order to observe potential aggregation events. Then, RecAPa* was added, and the autoproteolysis reaction was followed for 1 h at 37 °C (1 reading per minute). FlAsH-LexAPa ^CTD autoproteolysis percent inhibition was calculated as mentioned above and plotted as a function of compound concentration. Experimental data fitting was performed with GraphPad Prism 8 to obtain the absolute IC50.

[3] = tested on: P. aeruginosa PAO1 on THP-1-derived macrophages; test: P. aeruginosa PAO1 colonization of THP-1-derived macrophages; format: cell-based; details: single agent: ciprofloxacin 0.5 μg/mL or A12 100 μg/mL; 3 h infection
Protocol: THP-1-derived macrophages were generated from THP-1 monocytes as previously described, with minor modifications. , Briefly, THP-1 monocytes were washed three times with antibiotic-free RPMI 1640 medium and resuspended in complete antibiotic-free RPMI 1640 supplemented with 300 nM phorbol 12-myristate 13-acetate (PMA). Cells were incubated for 24 h, followed by a 48 h rest period in PMA-free RPMI 1640 prior to use in subsequent experiments. […] PMA-differentiated THP-1-derived macrophages were similarly trypsinized and seeded into 24-well plates at 5 × 10^5 cells/well in complete, antibiotic-free RPMI supplemented with FBS. Cells were incubated overnight to allow for attachment. Immediately prior to infection, the medium was aspirated, and cells were washed three times with Dulbecco’s phosphate-buffered saline. […] Infection was synchronized by centrifuging plates at 1000g for 1 min. […] Following the infection period, the medium was aspirated, and cells were washed three times with DPBS to remove unattached bacteria and residual test compounds. […] In both cases, the resulting lysates were serially diluted in DPBS and plated on tryptic soy agar plates. Plates were incubated at 37 °C for 24 h, after which colonies were enumerated. Bacterial burden was expressed as the CFU per well.

[4] = target: LexAPa S125A (uncleavable mutant) (Pseudomonas aeruginosa ATCC 27853, UniProt P37452 1-204, S125A); test: EMSA; no A12, 10% DMSO; 8 uM LexA, 1 uM DNA; details: protein: recombinant; chain copies: 2; blunt
[5] = A12 (32 μg/mL) (+), in combination

Molecule	MIC on P. aeruginosa PAO1 [1, 5] [µg/mL]	MIC ([1]; A12 (32 μg/mL) (−)) [µg/mL]	further results
CN(C)[C@@H]1C(O)=C(C(N)=O)C(=O)[C@@]2(O)C(O)=C3C(=O)c4c(O)cccc4[C@@](C)(O)[C@H]3C[C@@H]12 [Tetracycline]	4	4 (≈ 9 µM)	
COc1c(N2C[C@@H]3CCCN[C@@H]3C2)c(F)cc2c(=O)c(C(=O)O)cn(C3CC3)c12 [Moxifloxacin]		0.0312 (≈ 0.0777 µM)	
C[C@H]1COc2c(N3CCN(C)CC3)c(F)cc3c(=O)c(C(=O)O)cn1c23 [Levofloxacin]	0.125	0.0625 (≈ 0.173 µM)	
Gentamycin	2		MIC on P. aeruginosa PAO1 ([1]; A12 (32 μg/mL) (−)): 2 µg/mL
CC(CC(=O)O)Nc1ccccc1CCc1ccccc1NC(C)CC(=O)O (stereo not shown) [BG-194, 3,3′-((ethane-1,2-diylbis(2,1-phenylene))bis(azanediyl))dibutyric acid]			LexAPa autocleavage percent inhibition of A12 derivatives [2]: did not display any inhibitory activity
O=C(O)CCNc1ccccc1CCc1ccccc1NCCC(=O)O [BG-191, 3,3′-((ethane-1,2-diylbis(2,1-phenylene))bis(azanediyl))dipropionic acid]			LexAPa autocleavage percent inhibition of A12 derivatives [2]: 20%
O=C(O)c1cn(C2CC2)c2cc(N3CCNCC3)c(F)cc2c1=O [Ciprofloxacin, reference compound]			Total (adherent + intracellular) burden of PAO1 on THP-1-derived macrophages [3]: diminished
CO/N=C(\C(=O)N[C@@H]1C(=O)N2C(C(=O)O)=C(CSc3nc(=O)c(=O)[nH]n3C)CS[C@H]12)c1csc(N)n1 [Ceftriaxone]	8	8 (≈ 14.4 µM)	
B1			binding result [4]: binds
